Assay [1] deals with T1, Kv7.4 (Homo sapiens, UniProt P56696).
T1 construct: gene KCNQ4; full-length channel, homomer, stably expressed in HEK293 cells (line a gift from the University of Copenhagen)
T1 sequence (P56696 1-695): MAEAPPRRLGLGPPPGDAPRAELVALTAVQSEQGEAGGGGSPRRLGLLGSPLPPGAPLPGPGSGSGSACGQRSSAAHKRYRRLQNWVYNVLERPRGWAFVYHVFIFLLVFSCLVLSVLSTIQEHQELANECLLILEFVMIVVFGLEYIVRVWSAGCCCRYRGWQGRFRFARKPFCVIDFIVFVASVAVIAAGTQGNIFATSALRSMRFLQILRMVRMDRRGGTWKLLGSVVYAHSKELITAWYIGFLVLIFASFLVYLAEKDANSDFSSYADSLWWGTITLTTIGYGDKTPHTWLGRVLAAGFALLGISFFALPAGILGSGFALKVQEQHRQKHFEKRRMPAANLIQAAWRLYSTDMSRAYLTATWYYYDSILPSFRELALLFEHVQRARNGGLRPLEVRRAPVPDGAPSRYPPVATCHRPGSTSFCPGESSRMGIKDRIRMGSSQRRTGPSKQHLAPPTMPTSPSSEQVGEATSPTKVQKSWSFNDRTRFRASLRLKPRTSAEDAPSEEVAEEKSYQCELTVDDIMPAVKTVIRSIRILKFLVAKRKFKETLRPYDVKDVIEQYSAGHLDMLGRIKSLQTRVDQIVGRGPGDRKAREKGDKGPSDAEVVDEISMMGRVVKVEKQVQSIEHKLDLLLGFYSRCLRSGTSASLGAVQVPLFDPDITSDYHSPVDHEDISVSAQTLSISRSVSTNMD
Nature of the assay: whole-cell patch clamp. It is filed as cell-based. The conditions noted are these: room temperature; opener, concentration not given; common approximate value for three openers.

A further assay has as its target Kv7.4 channel (UniProt P56696).
The target in assay [2] is T1, Kv7.4. Put plainly: inside-out patch clamp, single-channel NPo. It is filed as cell-based. The conditions noted are these: room temperature; activator applied to excised patch, no added Gβγ; unreliable: saturation not reached, sigmoidal fit of pooled patches.

As for `CCOC(=O)Nc1ccc(NCc2ccc(F)cc2)cc1N` [Retigabine], the “% increase of current at +20 mV” value on Kv7.4 [1] is listed as ~ 40%.

On to “G-protein βγ subunits from bovine brain (from UniProt P62871 1-340; P63212 1-71) (complex)”, for which, in the assay with Kv7.4 channel, the half maximal stimulation of Kv7.4 channel activity, inside-out excised patches, bath application of Gβγ (0.4–50 ng/ml) worked out at 8.1 ng/mL and the increase of whole-cell Kv7.4 current amplitude within 5 min of rupture, intracellular perfusion of active Gβγ (250 ng/ml), control cells turned out to be 70%. As for NS15370, the “% increase of current at +20 mV” value at Kv7.4 [1] is ~ 40%. PIP2: the half-maximal stimulation at Kv7.4 [2] was ~ 117 μM.

The values above are taken from article PMC5222924, “Synergistic interplay of Gβγ and phosphatidylinositol 4,5-bisphosphate dictates Kv7.4 channel activity” (Pflugers Archiv, 2016).
